Activity calls are given as the source filed them. No rule for the calls is given here.
System: CCRIS mutagenicity, Ames/micronucleus/aberration tests
Experiment: CCRIS mutagenicity studies
Details: Test System: AMES SALMONELLA TYPHIMURIUM
[1] = Strain/Indicator: TA98, Metabolic Activation: NONE, Method: STANDARD PLATE
[2] = Strain/Indicator: TA100, Metabolic Activation: NONE, Method: STANDARD PLATE
[3] = Strain/Indicator: TA98, Metabolic Activation: NONE, Method: PREINCUBATION
[4] = Strain/Indicator: TA100, Metabolic Activation: NONE, Method: PREINCUBATION
[5] = Strain/Indicator: TA1535, Metabolic Activation: NONE, Method: PREINCUBATION
[6] = Strain/Indicator: TA1537, Metabolic Activation: NONE, Method: PREINCUBATION

Measured: mutagenic call

O=[N+]([O-])c1ccc2ccc3ccccc3c2c1
active: Strain/Indicator: TA98(1,8-DNP6), Metabolic Activation: NONE, Method: STANDARD PLATE active; positive | Strain/Indicator: TA98(NR), Metabolic Activation: NONE, Method: STANDARD PLATE active; positive | [1] active; positive | [2] active; positive | Strain/Indicator: TA7001, Metabolic Activation: NONE, Method: PREINCUBATION active; positive | Strain/Indicator: TA7002, Metabolic Activation: NONE, Method: PREINCUBATION active; positive | Strain/Indicator: TA7003, Metabolic Activation: NONE, Method: PREINCUBATION active; positive | Strain/Indicator: TA7004, Metabolic Activation: NONE, Method: PREINCUBATION active; positive | Strain/Indicator: TA7005, Metabolic Activation: NONE, Method: PREINCUBATION active; positive | Strain/Indicator: TA7006, Metabolic Activation: NONE, Method: PREINCUBATION active; positive | Strain/Indicator: YG1021, Metabolic Activation: NONE, Method: STANDARD PLATE active; positive | Strain/Indicator: YG1024, Metabolic Activation: NONE, Method: STANDARD PLATE active; positive | Strain/Indicator: YG1026, Metabolic Activation: NONE, Method: STANDARD PLATE active; positive | Strain/Indicator: YG1029, Metabolic Activation: NONE, Method: STANDARD PLATE active; positive

CC(=O)[O][Hg][c]1ccccc1
inactive: Strain/Indicator: TA98, Metabolic Activation: HAMSTER, LIVER, S-9, AROCLOR 1254 (10%), Method: PREINCUBATION inactive; negative | [3] inactive; negative | Strain/Indicator: TA98, Metabolic Activation: RAT, LIVER, S-9, AROCLOR 1254 (10%), Method: PREINCUBATION inactive; negative | Strain/Indicator: TA100, Metabolic Activation: HAMSTER, LIVER, S-9, AROCLOR 1254 (10%), Method: PREINCUBATION inactive; negative | [4] inactive; negative | Strain/Indicator: TA100, Metabolic Activation: RAT, LIVER, S-9, AROCLOR 1254 (10%), Method: PREINCUBATION inactive; negative | Strain/Indicator: TA1535, Metabolic Activation: HAMSTER, LIVER, S-9, AROCLOR 1254 (10%), Method: PREINCUBATION inactive; negative | [5] inactive; negative | Strain/Indicator: TA1535, Metabolic Activation: RAT, LIVER, S-9, AROCLOR 1254 (10%), Method: PREINCUBATION inactive; negative | Strain/Indicator: TA1537, Metabolic Activation: HAMSTER, LIVER, S-9, AROCLOR 1254 (10%), Method: PREINCUBATION inactive; negative | [6] inactive; negative | Strain/Indicator: TA1537, Metabolic Activation: RAT, LIVER, S-9, AROCLOR 1254 (10%), Method: PREINCUBATION inactive; negative

O=[N+]([O-])c1ccccc1O
inactive: Strain/Indicator: TA98, Metabolic Activation: HAMSTER, LIVER, S-9, AROCLOR 1254, FLAVIN MONONUCLEOTIDE, Method: PREINCUBATION inactive; negative | [3] inactive; negative | Strain/Indicator: TA98, Metabolic Activation: RAT, LIVER, S-9, KANECHLOR 500, Method: PREINCUBATION inactive; negative | Strain/Indicator: TA98, Method: PREINCUBATION inactive; negative | Strain/Indicator: TA100, Metabolic Activation: HAMSTER, LIVER, S-9, AROCLOR 1254, FLAVIN MONONUCLEOTIDE, Method: PREINCUBATION inactive; negative | [4] inactive; negative | Strain/Indicator: TA100, Metabolic Activation: RAT, LIVER, S-9, KANECHLOR 500, Method: PREINCUBATION inactive; negative | Strain/Indicator: TA100, Method: PREINCUBATION inactive; negative | [5] inactive; negative | Strain/Indicator: TA1535, Method: PREINCUBATION inactive; negative | [6] inactive; negative | Strain/Indicator: TA1537, Method: PREINCUBATION inactive; negative | Strain/Indicator: TA1538, Metabolic Activation: NONE, Method: PREINCUBATION inactive; negative | Strain/Indicator: TA1538, Method: PREINCUBATION inactive; negative

Cc1c2ccccc2cc2ccccc12
inactive: Strain/Indicator: TA97, Metabolic Activation: NONE, Method: STANDARD PLATE inactive; negative | [1] inactive; negative | [2] inactive; negative | Strain/Indicator: TA100, Metabolic Activation: RAT, LIVER, S-9, AROCLOR 1254, Method: STANDARD PLATE inactive; negative
active: Strain/Indicator: TA97, Metabolic Activation: RAT, LIVER, S-9, PCB, Method: STANDARD PLATE active; positive | Strain/Indicator: TA98, Metabolic Activation: RAT, LIVER, S-9, AROCLOR 1254, Method: STANDARD PLATE active; positive | Strain/Indicator: TA98, Metabolic Activation: RAT, LIVER, S-9, PCB, Method: STANDARD PLATE active; positive | Strain/Indicator: TA100, Metabolic Activation: RAT, LIVER, S-9, PCB, Method: STANDARD PLATE active; positive

— PubChem BioAssay AID1259407 (Chemical Carcinogenesis Research Information System (CCRIS), 2018)
